Source: patent US20100267561A1, “HERBICIDAL PYRIDAZINONE DERIVATIVES” (priority 2007, published 2010)

Key:
Type in all cases: in vivo
[1] = system: velvetleaf (Abutilon theophrasti); assay: Test B pre-/postemergence plant response
From the text: (§1) Seeds of plant species selected from blackgrass (Alopecurus myosuroides), downy bromegrass (Bromus tectorum), green foxtail (Setaria viridis), Italian ryegrass (Lolium multiflorum), wheat (Triticum aestivum), wild oat (Avena fatua), catchweed bedstraw (Galium aparine), bermudagrass (Cynodon dactylon), surinam grass (Brachiaria decumbens), cocklebur (Xanthium strumarium), corn (Zea mays), large crabgrass (Digitaria sanguinalis), woolly cupgrass (Eriochloa villosa), giant foxtail (Setaria faberii), goosegrass (Eleusine indica), johnsongrass (Sorghum halepense), kochia (Kochia scoparia), lambsquarters (Chenopodium album), morningglory (Ipomoea coccinea), eastern black (E.B.) nightshade (Solanum ptycanthum), yellow nutsedge (Cyperus esculentus), pigweed (Amaranthus retroflexus), common ragweed (Ambrosia elation), Russian thistle (Salsola iberica), soybean (Glycine max), common (oilseed) sunflower (Helianthus annuus), and velvetleaf (Abutilon theophrasti) were planted and treated preemergence with test chemicals formulated in a non-phytotoxic solvent mixture which included a surfactant.
(§2) At the same time, plants selected from these crop and weed species and also winter barley (Hordeum vulgare), canarygrass (Phalaris minor), chickweed (Stellaria media) and windgrass (Apera spica-venti) were treated with postemergence applications of some of the test chemicals formulated in the same manner. Plants ranged in height from 2 to 18 cm (1- to 4-leaf stage) for postemergence treatments.
(§3) Plant species in the flooded paddy test consisted of rice (Oryza sativa), umbrella sedge (Cyperus difformis), ducksalad (Heteranthera limosa) and barnyardgrass (Echinochloa crus-galli) grown to the 2-leaf stage for testing. At time of treatment, test pots were flooded to 3 cm above the soil surface, treated by application of test compounds directly to the paddy water, and then maintained at that water depth for the duration of the test. Treated plants and controls were maintained in a greenhouse for 13 to 15 days, after which time all species were compared to controls and visually evaluated. Plant response ratings, summarized in Table B, are based on a scale of 0 to 100 where 0 is no effect and 100 is complete control. A dash (-) response means no test result.

[2] = system: woolly cupgrass (Eriochloa villosa); assay: Test B pre-/postemergence plant response
From the text: as §1, §2, §3

[3] = system: cocklebur (Xanthium strumarium); assay: Test B pre-/postemergence plant response
From the text: as §1, §2, §3

[4] = system: giant foxtail (Setaria faberii); assay: Test B pre-/postemergence plant response
From the text: as §1, §2, §3

[5] = system: bermudagrass (Cynodon dactylon); assay: Test B pre-/postemergence plant response
From the text: as §1, §2, §3

[6] = system: downy bromegrass (Bromus tectorum); assay: Test B pre-/postemergence plant response
From the text: as §1, §2, §3

[7] = system: Italian ryegrass (Lolium multiflorum); assay: Test B pre-/postemergence plant response
From the text: as §1, §2, §3

corn (Zea mays) = assay: Test B pre-/postemergence plant response
From the text: as §1, §2, §3

[8] = system: yellow nutsedge (Cyperus esculentus); assay: Test B pre-/postemergence plant response
From the text: as §1, §2, §3

[9] = system: ducksalad (Heteranthera limosa); assay: Test B flooded paddy test plant response
Method in brief: (§4)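 Paddy-water application to 2-leaf plants in pots held under 3 cm of flooding; response is a 0–100 visual control rating against controls after 13 to 15 days, and a dash marks a missing result.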

rice (Oryza sativa) = assay: Test B flooded paddy test plant response
Method in brief: as §4

[10] = system: barnyardgrass (Echinochloa crus-galli); assay: Test B flooded paddy test plant response
Method in brief: as §4

[11] = system: umbrella sedge (Cyperus difformis); assay: Test B flooded paddy test plant response
Method in brief: as §4

[12] = Postemergence, 31 g ai/ha, scale 0 to 100, 0 no effect, 100 complete control
[13] = Postemergence, 62 g ai/ha, scale 0 to 100
[14] = Postemergence, 125 g ai/ha, scale 0 to 100
[15] = Postemergence, 250 g ai/ha, scale 0 to 100
[16] = Preemergence, 31 g ai/ha, 0 to 100 scale, 0 no effect, 100 complete control
[17] = Preemergence, 62 g ai/ha, scale 0 to 100
[18] = Preemergence, 125 g ai/ha, scale 0 to 100
[19] = Preemergence, 250 g ai/ha, scale 0 to 100
[20] = Flood (flooded paddy test), 62 g ai/ha, scale 0 to 100, 0 no effect, 100 complete control
[21] = Flood (flooded paddy test), 125 g ai/ha, scale 0 to 100, 0 no effect, 100 complete control
[22] = Flood (flooded paddy test), 250 g ai/ha, scale 0 to 100, 0 no effect, 100 complete control
[23] = Flood, 31 g ai/ha, scale 0 to 100

## 5-[3-(4-chlorophenyl)-5-methyl-1H-pyrazol-1-yl]-1,6-dihydro-1-methyl-6-oxo-4-pyridazinyl-1-methylethyl carbonate [Compound 7]
[1]; [12]
  Plant response rating, Velvetleaf: 0
[1]; [13]
  Plant response rating, Velvetleaf: 0
[1]; [14]
  Plant response rating, Velvetleaf: 0
[1]; [15]
  Plant response rating, Velvetleaf: 0
[1]; [16]
  Plant response rating, Velvetleaf: 0
[1]; [17]
  Plant response rating, Velvetleaf: 0
[1]; [18]
  Plant response rating, Velvetleaf: 0
[1]; [19]
  Plant response rating, Velvetleaf: 0
[2]; [12]
  Plant response rating, Cupgrass, Woolly: 100
[2]; [13]
  Plant response rating, Cupgrass, Woolly: 100
[2]; [14]
  Plant response rating, Cupgrass, Woolly: 100
[2]; [15]
  Plant response rating, Cupgrass, Woolly: 100
[2]; [16]
  Plant response rating, Cupgrass, Woolly: 70
[2]; [17]
  Plant response rating, Cupgrass, Woolly: 70
[2]; [18]
  Plant response rating, Cupgrass, Woolly: 85
[2]; [19]
  Plant response rating, Cupgrass, Woolly: 100
[3]; [12]
  Plant response rating, Cocklebur: 0
[3]; [13]
  Plant response rating, Cocklebur: 0
[3]; [14]
  Plant response rating, Cocklebur: 0
[3]; [15]
  Plant response rating, Cocklebur: 0
[3]; [16]
  Plant response rating, Cocklebur: 0
[3]; [17]
  Plant response rating, Cocklebur: 0
[3]; [18]
  Plant response rating, Cocklebur: 0
[3]; [19]
  Plant response rating, Cocklebur: 0
[4]; [12]
  Plant response rating, Foxtail, Giant: 98
[4]; [13]
  Plant response rating, Foxtail, Giant: 100
[4]; [14]
  Plant response rating, Foxtail, Giant: 100
[4]; [15]
  Plant response rating, Foxtail, Giant: 100
[4]; [16]
  Plant response rating, Foxtail, Giant: 100
[4]; [17]
  Plant response rating, Foxtail, Giant: 100
[4]; [18]
  Plant response rating, Foxtail, Giant: 100
[4]; [19]
  Plant response rating, Foxtail, Giant: 100
[5]; 250 g ai/ha, preemergence, 0-100 scale
  Bermudagrass plant response rating: 100
[5]; [12]
  Plant response rating, Bermudagrass: 100
[5]; [13]
  Plant response rating, Bermudagrass: 100
[5]; [14]
  Plant response rating, Bermudagrass: 100
[5]; [15]
  Plant response rating, Bermudagrass: 100
[5]; [16]
  Plant response rating, Bermudagrass: 60
[5]; [17]
  Plant response rating, Bermudagrass: 90
[5]; [18]
  Plant response rating, Bermudagrass: 90
[6]; [12]
  Plant response rating, Bromegrass, Downy: 0
[6]; [13]
  Plant response rating, Bromegrass, Downy: 0
[6]; [14]
  Plant response rating, Bromegrass, Downy: 0
[6]; [15]
  Plant response rating, Bromegrass, Downy: 0
[6]; [16]
  Plant response rating, Bromegrass, Downy: 35
[6]; [17]
  Plant response rating, Bromegrass, Downy: 35
[6]; [18]
  Plant response rating, Bromegrass, Downy: 60
[6]; Preemergence, 250 g ai/ha, scale 0 to 100 (0 no effect, 100 complete control)
  Plant response rating, Bromegrass, Downy: 60
[7]; [12]
  Plant response rating, Ryegrass, Italian: 95
[7]; [13]
  Plant response rating, Ryegrass, Italian: 100
[7]; [14]
  Plant response rating, Ryegrass, Italian: 100
[7]; [15]
  Plant response rating, Ryegrass, Italian: 100
[7]; [16]
  Plant response rating, Ryegrass, Italian: 90
[7]; [17]
  Plant response rating, Ryegrass, Italian: 100
[7]; [18]
  Plant response rating, Ryegrass, Italian: 100
[7]; [19]
  Plant response rating, Ryegrass, Italian: 100
Corn (Zea mays); [12]
  Plant response rating, Corn: 90
Corn (Zea mays); [13]
  Plant response rating, Corn: 90
Corn (Zea mays); [14]
  Plant response rating, Corn: 90
Corn (Zea mays); [15]
  Plant response rating, Corn: 90
Corn (Zea mays); [16]
  Plant response rating, Corn: 90
Corn (Zea mays); [17]
  Plant response rating, Corn: 95
Corn (Zea mays); [18]
  Plant response rating, Corn: 98
Corn (Zea mays); [19]
  Plant response rating, Corn: 100
[8]; [12]
  Plant response rating, Nutsedge, Yellow: 0
[8]; [13]
  Plant response rating, Nutsedge, Yellow: 0
[8]; [14]
  Plant response rating, Nutsedge, Yellow: 0
[8]; [15]
  Plant response rating, Nutsedge, Yellow: 0
[8]; [16]
  Plant response rating, Nutsedge, Yellow: 0
[8]; [17]
  Plant response rating, Nutsedge, Yellow: 0
[8]; [18]
  Plant response rating, Nutsedge, Yellow: 0
[8]; [19]
  Plant response rating, Nutsedge, Yellow: 0
[9]; [20]
  Plant response rating, Ducksalad: 0
[9]; [21]
  Plant response rating, Ducksalad: 20
[9]; [22]
  Plant response rating, Ducksalad: 40
[9]; [23]
  Plant response rating, Ducksalad: 0
Rice (Oryza sativa); [20]
  Plant response rating, Rice: 30
Rice (Oryza sativa); [21]
  Plant response rating, Rice: 45
Rice (Oryza sativa); [22]
  Plant response rating, Rice: 65
Rice (Oryza sativa); [23]
  Plant response rating, Rice: 20
[10]; [20]
  Plant response rating, Barnyardgrass: 45
[10]; [21]
  Plant response rating, Barnyardgrass: 65
[10]; [22]
  Plant response rating, Barnyardgrass: 85
[10]; [23]
  Plant response rating, Barnyardgrass: 20
[11]; [20]
  Plant response rating, Sedge, Umbrella: 80
[11]; [21]
  Plant response rating, Sedge, Umbrella: 80
[11]; [22]
  Plant response rating, Sedge, Umbrella: 80
[11]; [23]
  Plant response rating, Sedge, Umbrella: 70
